# According to patent publication US5773424A, “Treatment of toxoplasmosis” (priority 1994, dated 1998):
# Where two headings read alike, the source gives them in different places.
# B1: T. gondii adenosine kinase (Toxoplasma gondii) (protein)
# chain: MAVDSSNSATGPMRVFAIGNPILDLVAEVPSSFLDEFFLKRGDATLATPEQMRIYSTLDQFNPTSLPGGSALNSVRVVQKLLRKPGSAGYMGAIGDDPRGQVLKELCDKEGLATRFMVAPGQSTGVCAVLINEKERTLCTHLGACGSFRLPEDWTTFASGALIFYATAYTLTATPKNALEVAGYAHGIPNAIFTLNLSAPFCVELYKDAMQSLLLHTNILFGNEEEFAHLAKVHNLVAAEKTALSTANKEHAVEVCTGALRLLTAGQNTGATKLVVMTRGHNPVIAAEQTADGTVVVHEVGVPVVAAEKIVDTNGAGDAFVGGFLYALSQGKTVKQCIMCGNACAQDVIQHVGFSLSFTSLPC
# Key:
# [1] = Toxicity of compounds, MTT assay; format: cell-based, human; settings: human, foreskin fibroblasts
# Protocol: Toxicity of compounds. Toxicity of the different doses of the various analogues were performed at least in triplicates, using a modification of the Microculture Tetrazolium (MTT) assay and uninfected monolayers of human foreskin fibroblasts. Briefly, confluent cells were incubated for at least 24 hours in the 96-well flat bottom microtiterplates (~10^5 /200 μL/well) and incubated at 37° C. in 5% CO2, 95% air to allow the cells to attach. The medium was then replaced with 200 μL of fresh medium. […] The cultures were then incubated for 48 hours, after which 50 μL of sterile MTT solution (2 mg/1 mL PBS) was added to each well. MTT solution was sterilized by filtration through 0.22 μm filters (Costar, Cambridge, Mass.). After 4 hours incubation, the medium was removed and 100 μL of dimethylsulfoxide (DMSO) was added to each well and the plates were shaken gently for 2-3 minutes to dissolve the formed formazan crystals. The absorbance was measured at 540 nm, using a computerized microtiterplate reader (Themomax, Molecular Division)
# [2] = test system: Toxoplasma gondii grown in human fibroblasts; assay: Incorporation of radiolabeled uracil (parasite survival); format: cell-based; settings: Toxoplasma gondii, Fibroblast, [5,6-3H]uracil incorporation, read-out: percent survival of Toxoplasma gondii grown in human fibroblasts
# Protocol: Incorporation of Radiolabeled Uracil. […] Uptake and incorporation of radiolabeled uracil into nucleic acids of T. gondii were carried out, at least in triplicates, in tissue culture, using monolayers of human foreskin fibroblasts infected with T. gondii. The fibroblasts were cultured in no more than 30 passages in Dulbecco's modified Eagle medium, containing 100 units/mL penicillin G and 100 μg/mL streptomycin sulfate, and 10% FBS, pH 7.2. Briefly, confluent cells (4-5 day incubation) were cultured for 24 hours in the 24-well flat bottom microtiterplates (~5×10^5 /1 mL/well) and incubated at 37° C. in 5% CO2, 95% air to allow the cells to attach. The medium was then removed and the cells were infected with isolated T. gondii in medium with 3% FBS (1 parasite/cell). After 1 hour incubation, the cultures were washed with media with 10% FBS to remove extracellular parasites. FBS was maintained at a final concentration of 10%. […] After an additional 18 hours incubation, the medium was replaced with 1 mL drug free media containing […] (2 μCi/mL) and incubated for another 6 hours, after which the media was removed. The fibroblasts were released from the wells by trypsinization with the addition of 200 μL trypsin/EDTA (2.5×) to each well. After 10 minutes incubation, 1 mL of ice cold 10% trichloroacetic acid (TCA) was added to each well. The plates were then placed on a shaker to insure the detachment of the cells. The suspended contents of each well were filtered through GF/A 2.4 cm glass microfiber filters (Whatman, Hillsboro, Oreg.), which were prewashed each with 1 mL double distilled H2 O and dried. After filtration, the filters were washed with 10 mL methanol, left to dry, and then placed in scintillation vials containing 5 mL of Econo-Safe scintillation fluor (Research Products International Corp., Mount Prospect, Ill.), and radioactivity was counted using an LS5801 Beckman scintillation counter.
# [3] = test system: Toxoplasma gondii grown in human fibroblasts; assay: Plaque formation in human fibroblasts; format: cell-based; settings: control (0 μM) 21 ± 3.5
# From the text: To investigate the effect of metabolizing NBMPR on the survival of T. gondii, the number and size of plaque formation by T. gondii on human fibroblasts was investigated. NBMPR decreased the number and size of toxoplasma in human fibroblasts (Table 13).
# [4] = test system: extracts from different strains of Toxoplasma; assay: Conversion of NBMPR to NBMPR-P in the presence of ATP or PRPP by extracts of different strains; format: biochemical, Toxoplasma gondii
# Protocol: Maintenance of T. gondii. The wild type RH, the adenosine kinase deficient mutant ara-A^R (R), and the phosphoribosyltransferase deficient mutants (HGPRT^- and Tnx^R-1) strains of T. gondii were propagated by intraperitoneal passage in female CD1 mice (20-25 g). Mice were injected intraperitoneally (i.p.) with an inoculum (10^6 cells) of T. gondii contained in 0.2 ml of sterile phosphate buffered saline (PBS), pH 7.2, and were sacrificed after 2-3 days by inhalation of ether. The parasites were harvested from the peritoneal cavity by injection, aspiration and reinjection of 3-5 mL of PBS (2-3 times). The peritoneal fluid was examined microscopically to determine the concentration of T. gondii and to ascertain the extent of contamination by host cells.
# (§1) Enzyme assay. […] Incubation was carried out at 37° C.
# Phosphoribosyltransferase activity was measured by following the formation of [^3 H] NMMPR-P from [^3 H] NBMPR and 5-phosphoribosyl-1-pyrophosphate (PRPP). The standard reaction mixtures contained 50 mM Tris-Cl (pH 7.4), 10 μM [^3 H] NBMPR (55 Ci/mol), 4 mM PRibPP, 20 mM MgCl2, 50 mM KCI, and 50 μl of enzyme extract (4-8 μg of protein) in a final volume of 100 μl. Reactions were incubated at 37° C. and terminated in boiling water bath for 2 minutes. Precipitated proteins were removed by centrifugation. A 10 μl aliquot of the resulting supernatant was spotted on cellulose thin layer chromatography plates which were developed with 5% dibasic potassium phosphate. The average Rf values were as follows: NBMPR, 0.28; NBMP, 0.16; NBMPR-P, 0.44. The radioactivity was quantified using a Berthold TLC Linear Analyzer (Wallac, Inc., Gaithersburg, Md.). All assays were run under conditions in which velocity was linear with respect to time and amount of enzyme extract. Enzyme velocity was calculated by multiplying the fraction of nucleotide formed from nucleoside by the amount of nucleoside in the assay divided by the incubation time. Specific activity was estimated by dividing enzyme velocity by the amount of protein in the assay.
# [5] = test system: extracts of Toxoplasma gondii; settings: 50 µM; for Percent conversion of NBMPR to NBMP: t. gondii extract; for Percent conversion of NBMPR to NBMPR-P / Percent conversion of NBMPR to nucleobase (NBMP): toxoplasma gondii
# Protocol: (§2) Preparation of extracts. Extracts of T. gondii were prepared by homogenizing parasites or tissues in ice cold (3:1, v/w) 50 mM Tris-Cl buffer (pH 7.4) containing 1 mM EDTA, 1 mM dithiothreitol with a polytron homogenizer (Brinkmann, Westbury, N.Y.) and the homogenates were centrifuged at 105,000×g for 1 hour at 4° C. The supernatant fluids (cytosol) were collected and used as the enzyme source.
# (§3) Conversion assays. To measure the percent conversion of NBMPR to NBMPR-P and nucleobase (NBMP) by extracts of Toxoplasma gondii and mouse spleen, 50 mM Tris-Cl (pH 7.4), 5 mM MgCl2, 2.5 mM ATP, 5 mM creatine phosphate, creatine phosphokinase, 50 μM [^3 H-(G)] NBMPR (1.95 μCi/nmol), and 10 μl of cytosol extract were reacted in a final volume of 20 μl and incubated at 37° C. Reaction was initiated by addition of extract and terminated by boiling for 3 minutes. In a second reaction, 25 mM KCN was added to the reaction mixture.
# (§4) The plates for the assays of NBMPR were developed in n-butanol/ethyl acetate/NH4 /methanol (49:28:28:21, v/v/v/v). The Rf values were: NBMPR, 0.76; NBMPR-P, 0.50; NBMP, 0.89. The amounts of radioactivity in the substrate (nucleoside) and product (nucleobase and nucleotides) were calculated on a percentage basis using a Berthold LB-284 Automatic TLC-Linear Analyzer.
# [6] = test system: extracts of mouse spleen; settings: spleen cytosol extract, 50 µM
# Protocol: as §2, §3, §4
# [7] = test system: extracts of Toxoplasma gondii; assay: Inhibition of phosphorylation of adenosine (or inosine) to nucleoside 5'-monophosphate; format: biochemical; settings: T. gondii extract
# Protocol: as §1
# [8] = test system: extracts from mouse liver; assay: Inhibition of phosphorylation of adenosine; format: biochemical; settings: mouse liver extract
# Protocol: as §1
# [9] = test system: extracts from human liver; assay: Inhibition of phosphorylation of adenosine; format: biochemical; settings: human liver extract
# Protocol: as §1
# [10] = test system: extracts of human liver; assay: Inhibition of phosphorylation of NBMPR; format: biochemical
# Protocol: as §1
# [11] = biological target: T. gondii adenosine kinase (Toxoplasma gondii, UniProt Q9TVW2); assay: biochemical; settings: AppKi for inhibition of T. gondii adenosine kinase, 5 μM adenosine; ± range, at least two estimations
# [12] = test system: extracts of Toxoplasma gondii; assay: Inhibition of phosphorylation of NBMPR (formation of NBMPR-P); format: biochemical
# Protocol: as §1
# [13] = substrate: Nc1ncnc2c1ncn2[C@@H]1O[C@H](CO)[C@@H](O)[C@H]1O; assay: cells, lysate or membranes named; settings: other: adenosine as substrate; pH 8.0
# Protocol: Preparation of cytosol extracts. For the structure activity relationships studies, approximately 5×10^8 T. gondii were suspended in 1.2 ml of 50 mM N-2-hydroxyethylpiperazine-N'-2-ethanesulfonic acid (HEPES)-Cl (pH 8.0)/1 mM dithiothreitol and homogenized for 30 seconds at setting 10, using a Brinnmann Instruments Polytron homogenizer fitted with a PTA 7K1 probe. The homogenate was then centrifuged at approximately 116,000 g for 1 hour at 5° and the supernatant (cytosol extract) collected and used as the enzyme source. Fresh cytosol extracts were prepared for each experiment.
# Adenosine kinase assay. T. gondii adenosine kinase activity was measured by following the formation of [^14 C]AMP from [^14 C]adenosine and ATP. […]
# Reactions were started by the addition of [8-^14 C]adenosine, incubated at 37° for 10 minutes and terminated by placing the reaction tubes in a boiling water bath for 2 minutes. […] The substrate and product spots (which accounted for all of the radioactivity on the plates) were identified by UV quenching, cut out, and the radioactivity quantitated by liquid scintillation counting in 20 ml of Scintilene, using a Packard 460 scintillation counter. […] Enzyme velocity was calculated by multiplying the fraction of AMP formed from adenosine times the amount of adenosine in the assay, and dividing by the incubation time. […]
molecule,measurement,setting,value
"O=[N+]([O-])c1ccc(CSc2ncnc3c2ncn3[C@@H]2O[C@H](CO)[C@@H](O)[C@H]2O)cc1 [Compound 21, 6-(p-Nitrobenzyl)mercaptopurine riboside (NBMPR)]","viability at 48 h, 5 µM",[1],98.8%
same,"viability at 48 h, 10 µM",[1],97.1%
same,"viability at 48 h, 25 µM",[1],96.3%
same,"viability at 48 h, 50 µM",[1],95.4%
same,activity at 5 µM,[2]; 5 μM,74.3%
same,activity at 10 µM,[2]; 10 μM,55.5%
same,activity at 25 µM,[2]; 25 μM,23.1%
same,activity at 50 µM,[2]; 50 μM,6.7%
same,Number of Plaques,[3]; NBMPR 33 μM,23 ± 0.7
same,Number of Plaques,[3]; NBMPR 100 μM,3 ± 1.4
same,Percent conversion of NBMPR to NBMPR-P,"[4]; strain Ara-A^R, +ATP",0%
same,Percent conversion of NBMPR to NBMPR-P,"[4]; strain Ara-A^R, +PRPP",3.8 ± 0.2%
same,Percent conversion of NBMPR to NBMPR-P,"[4]; strain HGPRT^-, +ATP",2.6 ± 1.3%
same,Percent conversion of NBMPR to NBMPR-P,"[4]; strain HGPRT^-, +PRPP",0%
same,Percent conversion of NBMPR to NBMPR-P,"[4]; strain RH, +ATP",0.7 ± 0.2%
same,Percent conversion of NBMPR to NBMPR-P,"[4]; strain RH, +PRPP",4.3 ± 0.3%
same,Percent conversion of NBMPR to NBMPR-P,"[4]; strain Thx^R-1, +ATP",2.0 ± 0.6%
same,Percent conversion of NBMPR to NBMPR-P,"[4]; strain Thx^R-1, +PRPP",0%
same,Percent conversion of NBMPR to NBMP,[5]; 0.25 h,0.9 ± 0.3%
same,Percent conversion of NBMPR to NBMP,[5]; 0.5 h,2.8 ± 3.8%
same,Percent conversion of NBMPR to NBMP,[5]; 1 h,4.0 ± 1.3%
same,Percent conversion of NBMPR to NBMP,[5]; 2 h,9.5 ± 1.3%
same,Percent conversion of NBMPR to NBMP,[5]; 4 h,14.3 ± 3.3%
same,Percent conversion of NBMPR to NBMPR-P,"[5]; cytosol extract with kcn, 0.25 h",0.5 ± 0.1%
same,Percent conversion of NBMPR to NBMPR-P,"[5]; cytosol extract with kcn, 0.5 h",1.1 ± 0.1%
same,Percent conversion of NBMPR to NBMPR-P,"[5]; cytosol extract with kcn, 1 h",3.7 ± 2.5%
same,Percent conversion of NBMPR to NBMPR-P,"[5]; cytosol extract with kcn, 2 h",5.8 ± 0.7%
same,Percent conversion of NBMPR to NBMPR-P,"[5]; cytosol extract with kcn, 4 h",11.8 ± 4.8%
same,Percent conversion of NBMPR to NBMPR-P,"[5]; cytosol extract, 0.25 h",2.1 ± 0.5%
same,Percent conversion of NBMPR to nucleobase (NBMP),"[5]; cytosol extract, 0.25 h",8.0 ± 0.4%
same,Percent conversion of NBMPR to NBMPR-P,"[5]; cytosol extract, 0.5 h",3.2 ± 0.4%
same,Percent conversion of NBMPR to nucleobase (NBMP),"[5]; cytosol extract, 0.5 h",7.8 ± 3.7%
same,Percent conversion of NBMPR to NBMPR-P,"[5]; cytosol extract, 1 h",7.8 ± 1.5%
same,Percent conversion of NBMPR to nucleobase (NBMP),"[5]; cytosol extract, 1 h",14.8 ± 1.2%
same,Percent conversion of NBMPR to NBMPR-P,"[5]; cytosol extract, 2 h",9.4 ± 1.0%
same,Percent conversion of NBMPR to nucleobase (NBMP),"[5]; cytosol extract, 2 h",9.4 ± 2.8%
same,Percent conversion of NBMPR to NBMPR-P,"[5]; cytosol extract, 4 h",15.1 ± 4.4%
same,Percent conversion of NBMPR to nucleobase (NBMP),"[5]; cytosol extract, 4 h",10.4 ± 6.2%
same,Percent conversion of NBMPR to NBMPR-P,[6]; 0.25 h,0%
same,Percent conversion of NBMPR to nucleobase (NBMP),[6]; 0.25 h,0%
same,Percent conversion of NBMPR to NBMPR-P,[6]; 0.5 h,0%
same,Percent conversion of NBMPR to nucleobase (NBMP),[6]; 0.5 h,0%
same,Percent conversion of NBMPR to NBMPR-P,[6]; 1 h,0%
same,Percent conversion of NBMPR to nucleobase (NBMP),[6]; 1 h,0%
same,Percent conversion of NBMPR to NBMPR-P,[6]; 2 h,0%
same,Percent conversion of NBMPR to nucleobase (NBMP),[6]; 2 h,0%
same,Percent conversion of NBMPR to NBMPR-P,[6]; 4 h,0%
same,Percent conversion of NBMPR to nucleobase (NBMP),[6]; 4 h,0%
"Nc1ncnc2c([C@@H]3O[C@H](CO)[C@@H](O)[C@H]3O)n[nH]c12 [Compound 81, 8-Aza-9-deazaadenosine (formycin A)]","Effect on the phosphorylation of adenosine, in words",[7],no effect
same,"Effect on the phosphorylation of adenosine, in words",[8],no effect
same,"Effect on the phosphorylation of adenosine, in words",[9],no effect
same,"% Inhibition of phosphorylation of NBMPR, Human Liver",[10]; 100 μM,0%
same,"% Inhibition of phosphorylation of NBMPR, Human Liver",[10]; 250 μM,0%
same,"% Inhibition of phosphorylation of NBMPR, Human Liver",[10]; 500 μM,0%
same,Ki,[11],1400 µM
same,"% Inhibition of phosphorylation of NBMPR, T. gondii",[12]; 100 μM,0%
same,"% Inhibition of phosphorylation of NBMPR, T. gondii",[12]; 250 μM,0%
same,"% Inhibition of phosphorylation of NBMPR, T. gondii",[12]; 500 μM,0%
"Nc1nc2c(nc(N)n2[C@@H]2O[C@H](CO)[C@@H](O)[C@H]2O)c(=O)[nH]1 [8-Aminoguanosine, reference compound]","Effect on the phosphorylation of adenosine, in words",[7],no effect
same,"Effect on the phosphorylation of adenosine, in words",[8],no effect
same,"Effect on the phosphorylation of adenosine, in words",[9],no effect
same,"% Inhibition of phosphorylation of NBMPR, Human Liver",[10]; 25 μM,0%
same,"% Inhibition of phosphorylation of NBMPR, Human Liver",[10]; 50 μM,0%
same,"% Inhibition of phosphorylation of NBMPR, Human Liver",[10]; 100 μM,0%
same,"% Inhibition of phosphorylation of NBMPR, T. gondii",[12]; 25 μM,0%
same,"% Inhibition of phosphorylation of NBMPR, T. gondii",[12]; 50 μM,0%
same,"% Inhibition of phosphorylation of NBMPR, T. gondii",[12]; 100 μM,0%
B1,Km,[13],5 µM
